Experimental data as given in article PMC8091729 (Bioorganic & Medicinal Chemistry Letters, 2021).

Key:
COVID-19 = settings: patients with COVID-19; cited from earlier work
SARS-CoV-2 = assay: Image-based antiviral assay; assay type: cell-based; settings: CC50/EC50

| Compound | benefit in clinical trials (COVID-19) | selectivity index (SARS-CoV-2) |
| --- | --- | --- |
| CCC(CC)COC(=O)[C@H](C)N[P@](=O)(OC[C@H]1O[C@@](C#N)(c2ccc3c(N)ncnn23)[C@H](O)[C@@H]1O)Oc1ccccc1 [Remdesivir] | 68% | – |
| O=C(Cn1c2ccccc2n2c(=O)cc(-c3ccc(Cl)cc3)nc12)Nc1ccc(F)cc1F [Compound 7] | – | more than 10 |
